From patent US20170281611A1, “QUINOLINES AND THEIR USE FOR TREATING ENDOPLASMIC RETICULUM STRESS-CAUSED DISEASES” (EIGER BIOPHARMACEUTICALS, INC., priority 2014, published 2017)

Key:
Assay type in all cases: in vivo
[1] = test system: 6-OHDA lesioned Wistar rats; assay: Rat unilateral 6-OHDA model of Parkinson's disease, cylinder test; conditions: D11, L-DOPA 8 mg/kg with benserazide 12.5 mg/kg IP once; 6-OHDA/Vehicle 23.17±6.45
Procedure: (§1) Fifty adult male Wistar rats were used. The rats from different groups (G1 to G5) were randomized. At the beginning of the study, the rats were about 5 weeks old and naive to previous administration of any drug.
(§2) A stereotaxic injection of 6-OHDA (G2 to G5) or saline (G1: sham group) was performed to induce a unilateral dopaminergic lesion on day 0 (D0). Surgery was performed on D0 under ketamine (50 mg/kg) and xylazine (10 mg/kg). The rats of G2 to G5 received a unilateral injection of 6-OHDA (6 μL) in the left substantia nigra pars compacta. Jouve et al., J. Neurosci. 2010, 30, 9919-9928. The rats of the G1 sham group were injected with saline. During surgery, local analgesia was achieved using subcutaneous injections of lidocaine. At the end of surgery, the rats were treated with buprenorphine (0.05 mg/kg, S.C.).
The cylinder test was performed only on D11, after completion of the IT and stepping tests, and 1.5 hours after the rats were dosed. The rats were placed in a Plexiglas cylinder and immediately videotaped for 15 min. During this time, the number of contacts made on the cylinder wall with the ipsilateral, contralateral, and two paws simultaneously (double contacts) were recorded and then expressed as a percentage of the total number of contacts. Lundblad et al., Eur. J. Neurosci. 2002, 15, 120-132; Jouve et al., J. Neurosci. 2010, 30, 9919-9928. […]

[2] = test system: 6-OHDA lesioned Wistar rats; assay: Rat unilateral 6-OHDA model of Parkinson's disease, stepping test; conditions: D11, L-DOPA 8 mg/kg with benserazide 12.5 mg/kg IP once; 6-OHDA/Vehicle 1.19±0.24 steps
Procedure: as §1, §2
The stepping test was performed after IT test, both before the 6-OHDA lesion induction on D0 and on D11. Around D−6, the stepping test was performed eight consecutive times for the right paw of each animal to obtain baseline values. On D11, the stepping test was performed one hour after the rats were dosed. Each rat was hold by an experimenter and only one of the two forelimbs was left free to move above a plane surface and the other was held with the paw touching the table. The rats were then to be moved slowly forward by the experimenter. The number of adjusting steps was countered for the right paw. Olsson et al., J. Neurosci. 1995, 15, 3863-3875.
L-DOPA and benserazide (a peripheric DOPA decarboxylase inhibitor) were prepared together as a single solution containing 0.9% NaCl and 0.1% ascorbic acid.
All the dosings were given via the IP route, once daily, Sunday excluded.

[3] = test system: 6-OHDA lesioned Wistar rats; assay: Rat unilateral 6-OHDA model of Parkinson's disease, initiation time (IT) test; conditions: D11, L-DOPA 8 mg/kg with benserazide 12.5 mg/kg IP once; 6-OHDA/Vehicle 37.88±6.10 sec
Procedure: as §1, §2
The IT test was performed both before the 6-OHDA lesion induction on D0 and on day 11 (D11) after the 6-OHDA lesion induction. Around six days (D−6) before the 6-OHDA lesion induction, the IT test was performed eight consecutive times for each limb of each rat to obtain baseline values. On D11, the IT test was performed one hour after the rats were dosed. For every test, only one of the two forelimbs of each rat was left free to move and the time that is necessary to initiate the movement toward a plane surface was recorded using 180 sec as break-off point. […]

With N[C@@H](Cc1ccc(O)c(O)c1)C(=O)O [L-DOPA, reference compound] the “percentage of double contacts” value [1] was 46.67±4.60 double contacts, the “number of adjusting steps” value [2] was 10.05±0.56 steps and the initiation time [3] was 1.28 ± 0.21 s.
